For this assay, the target named is T1, MAGL (Homo sapiens, UniProt Q99685).
T1 construct: Proteomes (human prefrontal cortex or cell membrane fractions); from tissue
T1 sequence (Q99685 1-303): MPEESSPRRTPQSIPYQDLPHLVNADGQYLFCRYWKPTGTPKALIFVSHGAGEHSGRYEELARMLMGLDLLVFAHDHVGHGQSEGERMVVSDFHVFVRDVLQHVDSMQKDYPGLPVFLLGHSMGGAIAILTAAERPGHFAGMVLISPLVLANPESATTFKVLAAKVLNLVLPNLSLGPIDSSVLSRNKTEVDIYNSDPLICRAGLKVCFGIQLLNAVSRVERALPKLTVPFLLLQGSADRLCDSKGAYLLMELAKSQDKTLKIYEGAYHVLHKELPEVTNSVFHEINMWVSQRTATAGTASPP
In words: In vitro competitive activity-based protein profiling (gel-based, FP-Rh or HT-01 probe). The format is biochemical. Here is the method:
Compounds are tested to assess their MAGL and serine hydrolase activity using the following in vitro and in vivo assays.
Proteomes (human prefrontal cortex or cell membrane fractions) (50 μL, 1.0 mg/mL total protein concentration) were preincubated with varying concentrations of inhibitors at 37° C. After 30 min, FP—Rh or HT-01 (1.0 μL, 50 μM in DMSO) was added and the mixture was incubated for another 30 min at room temperature. Reactions were quenched with SDS loading buffer (15 μL-4×) and run on SDS-PAGE.

Setting [1] is: PC3 proteome, read-out: IC50 MGLL PC3 (Human).
The mark [2] stands for this setting: PFC (prefrontal cortex) proteome.
Where [3] appears, read: PFC (prefrontal cortex) proteome, read-out: IC50 MGLL PFC (Human).

Consider 22 molecules from patent US20210214375A1 (LUNDBECK LA JOLLA RESEARCH CENTER, INC., priority 2017, published 2021).

Structures are written as SMILES. Like-named read-outs stand apart in the source and are kept apart here.

As to `O=C(O)CN1CCN(c2cc(CN3CCCC34CCN(C(=O)OC(C(F)(F)F)C(F)(F)F)CC4)cc(C(F)(F)F)c2)CC1` [Example 2, 2-(4-(3-((8-(((1,1,1,3,3,3-Hexafluoropropan-2-yl)oxy)carbonyl)-1,8-diazaspiro[4.5]decan-1-yl)methyl)-5-(trifluoromethyl)phenyl)piperazin-1-yl)acetic acid], the IC50 under setting [1] was under 100 nM and the IC50 under setting [3] is under 100 nM. The “% Inh MGLL PFC (Human, μM)” value under setting [2] was “### (### is ≥ 75%)”. Regarding `O=C(O)C1CCN(Cc2cc(Cl)cc(C(=O)N3CCCC34CCN(C(=O)OC(C(F)(F)F)C(F)(F)F)CC4)c2)CC1` [Example 11, 1-(3-Chloro-5-(8-(((1,1,1,3,3,3-hexafluoropropan-2-yl)oxy)carbonyl)-1,8-diazaspiro[4.5]decane-1-carbonyl)benzyl)piperidine-4-carboxylic acid], under setting [1], the IC50 was under 100 nM. Further, the “% Inh MGLL PFC (Human, μM)” value under setting [2] was “### (### is ≥ 75%)”. Turning to `N#Cc1ccc(C(=O)N2CCC3(CCN(C(=O)OC(C(F)(F)F)C(F)(F)F)CC3)C2)cc1C(F)(F)F` [Example 12, 1,1,1,3,3,3-Hexafluoropropan-2-yl 2-(4-cyano-3-(trifluoromethyl)benzoyl)-2,8-diazaspiro[4.5]decane-8-carboxylate], the IC50 under setting [1] was under 100 nM. Same read-out and setting: the value for `O=C(O)c1cc(CN2CC3(CCN(C(=O)OC(C(F)(F)F)C(F)(F)F)CC3)C2)ccc1C(F)(F)F` [Example 21, 5-((7-(((1,1,1,3,3,3-Hexafluoropropan-2-yl)oxy)carbonyl)-2,7-diazaspiro[3.5]nonan-2-yl)methyl)-2-(trifluoromethyl)benzoic acid] was under 100 nM; that for `CC1(C(=O)O)CN(c2cc(CN3CC4(CCN(C(=O)OC(C(F)(F)F)C(F)(F)F)CC4)C3)cc(C(F)(F)F)c2)CCO1` (centres unmarked) [Example 22, 4-(3-((7-(((1,1,1,3,3,3-Hexafluoropropan-2-yl)oxy)carbonyl)-2,7-diazaspiro[3.5]nonan-2-yl)methyl)-5-(trifluoromethyl)phenyl)-2-methylmorpholine-2-carboxylic acid] was under 100 nM; that for `CN(Cc1ccc(C(F)(F)F)cc1-c1nnn[nH]1)C1(C)CCN(C(=O)OC(C(F)(F)F)C(F)(F)F)CC1` [Example 24, 1,1,1,3,3,3-Hexafluoropropan-2-yl 4-((2-(1H-tetrazol-5-yl)-4-(trifluoromethyl)benzyl)(methyl)amino)-4-methylpiperidine-1-carboxylate] was under 100 nM. Consider `CC1(OCc2cc(CN3CCC(C(=O)O)CC3)cc(C(F)(F)F)c2)CCN(C(=O)OC(C(F)(F)F)C(F)(F)F)CC1` [Example 25, 1-(3-(((1-(((1,1,1,3,3,3-Hexafluoropropan-2-yl)oxy)carbonyl)-4-methylpiperidin-4-yl)oxy)methyl)-5-(trifluoromethyl)benzyl)piperidine-4-carboxylic acid], for which the IC50 under setting [1] is under 100 nM. In addition, the “% Inh MGLL PFC (Human, μM)” value under setting [2] was “### (### is ≥ 75%)”. In the case of `CN(Cc1ccc(C(F)(F)F)cc1N1CCN(CC(=O)O)CC1)C1(C)CCN(C(=O)OC(C(F)(F)F)C(F)(F)F)CC1` [Example 26, 2-(4-(2-(((1-(((1,1,1,3,3,3-Hexafluoropropan-2-yl)oxy)carbonyl)-4-methylpiperidin-4-yl)(methyl)amino)methyl)-5-(trifluoromethyl)phenyl)piperazin-1-yl)acetic acid], the IC50 was under 100 nM under setting [1] and under 100 nM under setting [3]. Besides, the “% Inh MGLL PFC (Human, μM)” value under setting [2] is given as “### (### is ≥ 75%)”. For `CN(Cc1ccc(C(F)(F)F)cc1N1CC2CC1CN2CC(=O)O)C1(C)CCN(C(=O)OC(C(F)(F)F)C(F)(F)F)CC1` (centres unmarked) [Example 27, 2-(5-(2-(((1-(((1,1,1,3,3,3-Hexafluoropropan-2-yl)oxy)carbonyl)-4-methylpiperidin-4-yl)(methyl)amino)methyl)-5-(trifluoromethyl)phenyl)-2,5-diazabicyclo[2.2.1]heptan-2-yl)acetic acid], the IC50 runs as follows: under setting [1], under 100 nM; under setting [3], under 100 nM. As to `O=C(O)C1CN(c2cc(CN3CC4(CCN(C(=O)OC(C(F)(F)F)C(F)(F)F)CC4)C3)cc(C(F)(F)F)c2)CCO1` (centres unmarked) [Example 100, 4-(3-((7-(((1,1,1,3,3,3-Hexafluoropropan-2-yl)oxy)carbonyl)-2,7-diazaspiro[3.5]nonan-2-yl)methyl)-5-(trifluoromethyl)phenyl)morpholine-2-carboxylic acid], under setting [1], the IC50 was under 100 nM.

As to `O=C(O)C1CCN(c2cc(C(F)(F)F)ccc2CN2CC3(CCN(C(=O)OC(C(F)(F)F)C(F)(F)F)CC3)C2)C1` (centres unmarked) [Example 101, 1-(2-((7-(((1,1,1,3,3,3-Hexafluoropropan-2-yl)oxy)carbonyl)-2,7-diazaspiro[3.5]nonan-2-yl)methyl)-5-(trifluoromethyl)phenyl)pyrrolidine-3-carboxylic acid], under setting [1], the IC50 was under 100 nM. The same measure, in the same setting: under `O=C(O)C1CCN(c2cc(C(F)(F)F)ccc2CN2CC3(CCN(C(=O)OC(C(F)(F)F)C(F)(F)F)CC3)C2)CC1` [Example 102, 1-(2-((7-(((1,1,1,3,3,3-Hexafluoropropan-2-yl)oxy)carbonyl)-2,7-diazaspiro[3.5]nonan-2-yl)methyl)-5-(trifluoromethyl)phenyl)piperidine-4-carboxylic acid] stands under 100 nM; under `O=C(O)C1COCCN1c1cc(CN2CC3(CCN(C(=O)OC(C(F)(F)F)C(F)(F)F)CC3)C2)cc(C(F)(F)F)c1` (centres unmarked) [Example 103, 4-(3-((7-(((1,1,1,3,3,3-Hexafluoropropan-2-yl)oxy)carbonyl)-2,7-diazaspiro[3.5]nonan-2-yl)methyl)-5-(trifluoromethyl)phenyl)morpholine-3-carboxylic acid], under 100 nM; under `O=C(O)[C@@H]1CCCN(c2cc(C(F)(F)F)ccc2CN2CC3(CCN(C(=O)OC(C(F)(F)F)C(F)(F)F)CC3)C2)C1` [Example 107, (R)-1-(2-((7-(((1,1,1,3,3,3-Hexafluoropropan-2-yl)oxy)carbonyl)-2,7-diazaspiro[3.5]nonan-2-yl)methyl)-5-(trifluoromethyl)phenyl)piperidine-3-carboxylic acid], under 100 nM.

For `O=C(OC(C(F)(F)F)C(F)(F)F)N1CCC2(CC1)CCN(C(=O)c1ccc(C(F)(F)F)c(Cl)c1)C2` [Example 109, 1,1,1,3,3,3-Hexafluoropropan-2-yl 2-(3-chloro-4-(trifluoromethyl)benzoyl)-2,8-diazaspiro[4.5]decane-8-carboxylate], the IC50 under setting [1] is under 100 nM. As for `O=C(OC(C(F)(F)F)C(F)(F)F)N1CCC2(CC1)CCN(C(=O)c1cc(Cl)cc(C(F)(F)F)c1)C2` [Example 110, 1,1,1,3,3,3-Hexafluoropropan-2-yl 2-(3-chloro-5-(trifluoromethyl)benzoyl)-2,8-diazaspiro[4.5]decane-8-carboxylate], the IC50 under setting [1] was under 100 nM.

In the case of `O=C(O)[C@H]1CCCN(c2cc(C(F)(F)F)ccc2CN2CC3(CCN(C(=O)OC(C(F)(F)F)C(F)(F)F)CC3)C2)C1` [Example 111, (S)-1-(2-((7-(((1,1,1,3,3,3-hexafluoropropan-2-yl)oxy)carbonyl)-2,7-diazaspiro[3.5]nonan-2-yl)methyl)-5-(trifluoromethyl)phenyl)piperidine-3-carboxylic acid], the IC50 under setting [1] is under 100 nM. The same measure, in the same setting: under `CC1(C(=O)O)CCN(c2cc(C(F)(F)F)ccc2CN2CC3(CCN(C(=O)OC(C(F)(F)F)C(F)(F)F)CC3)C2)C1` (centres unmarked) [Example 115, 1-(2-((7-(((1,1,1,3,3,3-Hexafluoropropan-2-yl)oxy)carbonyl)-2,7-diazaspiro[3.5]nonan-2-yl)methyl)-5-(trifluoromethyl)phenyl)-3-methylpyrrolidine-3-carboxylic acid] stands under 100 nM; under `O=C(OC(C(F)(F)F)C(F)(F)F)N1CCC2(CC1)CCN(C(=O)c1ccc(C(F)(F)F)cc1Cl)C2` [Example 119, 1,1,1,3,3,3-Hexafluoropropan-2-yl 2-(2-chloro-4-(trifluoromethyl)benzoyl)-2,8-diazaspiro[4.5]decane-8-carboxylate], under 100 nM; under `O=C(O)C1CCCCN1c1cc(CN2CC3(CCN(C(=O)OC(C(F)(F)F)C(F)(F)F)CC3)C2)cc(C(F)(F)F)c1` (centres unmarked) [Example 120, 1-(3-((7-(((1,1,1,3,3,3-Hexafluoropropan-2-yl)oxy)carbonyl)-2,7-diazaspiro[3.5]nonan-2-yl)methyl)-5-(trifluoromethyl)phenyl)piperidine-2-carboxylic acid], under 100 nM. Still for that read-out and setting: under `CC1(C(=O)O)CCN(c2cc(CN3CC4(CCN(C(=O)OC(C(F)(F)F)C(F)(F)F)CC4)C3)cc(C(F)(F)F)c2)C1` (centres unmarked) [Example 121, 1-(3-((7-(((1,1,1,3,3,3-Hexafluoropropan-2-yl)oxy)carbonyl)-2,7-diazaspiro[3.5]nonan-2-yl)methyl)-5-(trifluoromethyl)phenyl)-3-methylpyrrolidine-3-carboxylic acid] stands under 100 nM; under `O=C(O)C1CCN(c2cc(Cl)ccc2CN2CC3(CCN(C(=O)OC(C(F)(F)F)C(F)(F)F)CC3)C2)CC1` [Example 122, 1-(5-Chloro-2-((7-(((1,1,1,3,3,3-hexafluoropropan-2-yl)oxy)carbonyl)-2,7-diazaspiro[3.5]nonan-2-yl)methyl)phenyl) piperidine-4-carboxylic acid], under 100 nM.
